Laboratory results from patent publication US8829015B2 (Novartis AG, priority 2005, dated 2014).
Values after ≈ are worked out from the molar mass of the structure shown.

Assays:
[1] = pH of 1% solution or suspension in water; type: physicochemical; settings: 1% in water; listed as Free base form B
[2] = Hygroscopicity (water uptake); type: physicochemical; settings: 25° C. up to 80% r.h.
[3] = Intrinsic dissolution rate (rotating disk); type: physicochemical; settings: 37° C., 200 rpm
Method: Intrinsic Dissolution Rate (IDR): Dissolution rate measurements were performed at 37° C. using the rotating disk method (VanKell Instrument). A single rotation speed of 200 rpm was used. For IDR in 0.1N HCl, an 800 mL volume, and for IDR in water, a 200 mL volume were used. The solution was continuously pumped through a UV measuring cell and recycled to the dissolution vessel.
The measurements were carried out on a VanKel instrument using a Cary 100 photometer.

[4] = Thermal properties by TGA and DSC; type: physicochemical
Description: Form A's basic thermal properties were studied by thermogravimetric analysis (TGA) and differential scanning calorimetry (DSC) and are as follows:

[5] = physchem; settings: aqueous buffer solution, pH 2.8, aqueous buffer, thermodynamic from solid
[6] = Equilibration of free base forms with solvents, XRPD; type: physicochemical
Description: The solid part was investigated by XRPD.

SMILES: Cc1cn(-c2cc(NC(=O)c3ccc(C)c(Nc4nccc(-c5cccnc5)n4)c3)cc(C(F)(F)F)c2)cn1 [Form B of the free base]
- pH of 1% solution or suspension in water [1]: 7.99
- hygroscopicity [2]: not hygroscopic
- maximum water uptake [2]: less than 0.2%
- Intrinsic dissolution rate ([3]; Water, listed as Free base form B): 0.0013 mg min^−1cm^−2
- Intrinsic dissolution rate ([3]; pH 1 (0.1 N HCl)): 0.17 mg min^−1cm^−2
- Decomposition temperature [4]: >300 °C
- Solubility [5]: 2.8 µg/mL (≈ 5.29 µM)
- form transition on equilibration ([6]; seven solvents (methanol, ethanol, 2-propanol, ethyl acetate, acetone, tetrahydrofuran, acetonitrile), at least 48 hours, room temperature): No form transition occurred
- form transition on equilibration ([6]; thirteen solvents, one day, 25° C.): No form transitions occurred with the exception of one trial of form B in water
